Reference: a melting point compilation (Tetko et al.; mined from patent text by program, amines drawn as free bases though some values may be those of a salt)

| Compound | melting point [°C] |
| --- | --- |
| CC(=O)C#CC1CCC2C3CCC4CC(O)CCC4(C)C3CCC12C (configuration not stated) | 148 to 150 |
| Oc1cc(Cl)cc(Br)c1O | 71 to 73 |
| COc1cc(/C=[N+](\[O-])C(C)C)ccc1O | 178 to 180 |
| COC(=O)CCc1cc2nc(Cl)ccc2n1S(=O)(=O)c1ccc2c(c1)CCN2C(C)=O | 66 |
| Cc1nnc2n1-c1sc(C(C)OC(=O)C(C)(C)C)cc1C(c1ccccc1Cl)=NC2 (configuration not stated) | 148 to 151 |
| C=CCN1CCC2(CC1)c1ccccc1C(=O)c1c(OC)cccc12 | 115 to 117 |
| N#Cc1cnc2cc3c(cc2c1Nc1cccc(Br)c1)OCO3 | 201 to 205 |
| O=C1c2ccc(OCCO)cc2C(=O)c2cc(-c3nnn[nH]3)ccc21 | 260 to 262 |
| COC(=O)c1c(N)cc(OC)c(OC)c1OC | 94 to 96 |
| CN1CCNC(c2ccccc2)c2cc(Cl)ccc21 (configuration not stated) | 66 to 68 |
| Brc1ccc(-c2cc(-c3cccc(Br)c3)no2)cc1 | 169 |
| Cc1c(Br)c(=O)c(-c2ccc(Cl)cc2)c(C)n1C | 264 to 266 |
| CCOC(=O)N1Cc2cccc3c2c(cn3C)C1 | 76 to 78 |
| Ic1ccc(Cc2ccc(I)cc2)cc1 | 160 to 164 |
| Cc1c(C#N)c(-c2ccc(C#N)cc2)c(C)n1Cc1ccc(Cl)c(COC(=O)CCC(=O)O)c1 | 149 to 151 |
| CN1C(C)(C)CC2(CC1(C)C)NC(=O)N(CC(O)CN1C(=O)NC3(CC(C)(C)N(C)C(C)(C)C3)C1=O)C2=O | 255 to 256 |
| CCNC(=O)c1ccc(F)c(F)c1 | 94.1 to 96.2 |
| COc1ccc(C(C#N)C(C)C)cc1OC (configuration not stated) | 45.5 to 49 |
| COC(=O)CCCCNC(=O)C[C@H]1O[C@H](c2cccc(OC)c2OC)c2cc(Cl)ccc2N(CC(C)(C)CO)C1=O | 84 to 85 |
| Nc1c(Cl)c(F)nc(F)c1Cl | 110 |

| Compound | melting point [°C] |
| --- | --- |
| CO/N=C(\C(=O)OCCSc1nc2ccccc2s1)c1csc(NC=O)n1 | 172 to 173 |
| Cc1cc(-c2cc([N+](=O)[O-])ccc2F)cc(C)n1 | 169 to 171 |
| COC(=O)Cc1ccc(OCCN2CCN(c3cc(Cl)nnc3Cl)CC2)cc1 | 84 to 86 |
| CS(=O)c1nc(O)nn1-c1ccccc1 (configuration not stated) | 180 to 182 |
| CC(=O)CCCCC(=O)Nc1ccc(C=CC(=O)O)cc1 | 222 to 225 |
| CC(C)(C)CNN(CC(C)(C)C)S(=O)(=O)c1nc(Cl)cs1 | 157 |
| CC(=O)Nc1nc(CSc2ccc([N+](=O)[O-])cc2)cs1 | 165 to 166 |
| O=C(O)Cc1ccc(CCl)cc1 | 147 to 149 |
| CCCC(=O)Oc1ccc2nc(S(N)(=O)=O)sc2c1 | 122 to 123 |
| COCn1cnc(Cl)c1Cl | 41 to 44 |
| Cc1ccc(Cl)c(C)c1NC(=O)N=C1NC(=O)CN1C | 140 to 142 |
| CC(C)(C)OC(=O)N1CCC[C@H](COc2ccccc2O)C1 | 98 to 101 |
| CC(=O)N1OCC(=S)NC1c1ccccc1 (configuration not stated) | 172 to 174 |
| CC(C)(C)C(=O)Nc1nn(-c2ccc(F)cc2F)c2c1C1CCC2C1 (configuration not stated) | 136 to 138 |
| N#Cc1cc(I)c(I)[nH]1 | 211 to 213 |
| O=C(O)C=CC=CCSc1ccccc1 | 108 to 110 |
| CCOc1noc(-c2nc[nH]n2)c1C | 194 to 196 |
| C#CCCc1cc2cc(C(=O)OC)ccc2o1 | 57 to 58 |
| CC1(C)[C@@H](CS(=O)(=O)c2ccc(S(C)(=O)=O)cc2)CC[C@@]1(C)NCC(=O)N1CCC[C@H]1C#N | 162 to 166 |
| O=[N+]([O-])c1ccc2c(c1)N(c1nnn[nH]1)CC2 | 262 to 270 |

| Compound | melting point [°C] |
| --- | --- |
| CCCCN=C1c2ccccc2CCc2c1nc1c(cnn1CC)c2NCCCC | 124 to 125 |
| CC(C)CCOc1c(-c2ccc(S(N)(=O)=O)cc2)cnn(CC(F)(F)F)c1=O | 123 to 124 |
| COc1cccc2c(O)c(CO)cnc12 | > 350 |
| O=C(O)Cn1c2c([nH]c(=O)c1=O)CCC1=C2C=C(n2ccc(CN3CCN(c4ccc([N+](=O)[O-])cc4)CC3)c2)CC1 | > 300 |
| Cc1cc(C)n(C(=O)CNS(=O)(=O)c2ccc(C3CCCCC3)cc2)n1 | 138 |
| CCCc1c(OCCCc2ccc(OC)c(OC)c2)ccc(C(=O)O)c1O | 104 to 110 |
| CC(C)OC(=O)N=C1SCS1 | 72 to 73 |
| CN1CCN(Cc2nnc(S)n2Cc2cc(F)cc(F)c2)CC1 | 200 to 201 |
| Cc1cccc(C)c1N(CC(=O)NCC(=O)O)C(=O)c1ccc(Cl)cc1 | 200 to 201 |
| O=C(Cl)c1cc([N+](=O)[O-])ccc1F | 59 to 60 |
| Oc1nc2cccccc-2n1 | 245 |
| O=Cc1ccc2c(c1)CCC(C(=O)O)C2 (configuration not stated) | 205 to 212 |
| O=C(O)CCc1cn(Cc2cc(OCc3ccccc3)cc(OCc3csc(-c4cnccn4)n3)c2)cc1-c1ccccc1 | 109 to 110 |
| CCn1c(SC)cc2ccccc2c1=O | 80 to 82 |
| CCOCc1nc2c(N)nc3cc(Br)ccc3c2n1CC1CCCCN1C(=O)OC(C)(C)C (configuration not stated) | 190 to 192 |
| O=C(O)[C@@H]1CCC(=O)N1C(=O)c1ccccc1 | 140 to 141 |
| O=C(OCCCI)C(=C1NCCCS1)[N+](=O)[O-] | 58 to 60 |
| N#Cc1cc(N)ccc1Sc1ccccc1 | 73 to 75 |
| CCCS(=O)c1sc(C(N)=O)c2c1-c1c(cnn1CC(F)(F)F)CC2 (configuration not stated) | 165 to 166 |

More lines, now with the values ahead:

| melting point [°C] | Compound |
| --- | --- |
| 144 to 146 | COc1ccc2cc(-c3ccc(OCC(O)CNC(C)C)c(OC)c3)n(C)c(=O)c2c1 (configuration not stated) |
| 93 to 95 | Cn1c(=O)n(CC(=O)OCCF)c(=O)n(-c2cc(Oc3ncc(C(F)(F)F)cc3Cl)ccc2Br)c1=O |
| 152 to 160 | Nc1cc(N2CCN(C(c3ccccc3)(c3ccccc3)c3ccccc3)CC2)nc(N)n1 |
| 173 to 174 | Cn1nc(-c2ccncc2)c2ccccc2c1=O |
| 156 to 157 | CCCC1=C(C(=O)OCC)C(c2ccccc2Cl)c2cn(C(=O)Oc3ccccc3)nc2N1 (configuration not stated) |
| 206 | Clc1ccc(-c2c(-c3ccccc3)nn3ccccc23)nn1 |
| 79 to 80 | CC(C)(O)Cc1ccc2ccccc2c1 |
| 262 to 264 | Nc1noc2cc3c(cc12)C1(CO3)C(=O)N(Cc2ccccc2C(F)(F)F)c2ccccc21 (configuration not stated) |
| 250 | CC(=O)N1c2ccc(-c3ccc(-c4nnn[nH]4)cc3)cc2C(Nc2ccc(Cl)cc2)CC1C (configuration not stated) |
| 123 to 125 | O=C(CCc1ccc2ccccc2c1)CC(=O)CCc1ccc2ccccc2c1 |
| 84.9 to 85 | CC(=O)Oc1ccc(/C=C/c2cc(C)cc(C)c2)cc1 |
| 140 to 142 | COc1cc(OC)c2c(C)c(CCN3CCN(c4ccccc4OC)CC3)c(=O)oc2c1 |
| 88 to 90 | COC(=O)c1cccc(Sc2ccc(N(C)C)cc2)c1 |
| 50 to 54 | O=C1C(c2cccc(Br)c2)n2cncc2CN1Cc1cccnc1 (configuration not stated) |
| 105 to 107 | COc1ccc(CCNC(=O)c2ccc3c(c2)C=CC(C)(C)O3)cc1 |
| 170 to 171 | OC(CN1CCC(c2noc3cc(F)ccc23)CC1)CN1CCCc2ccccc21 (configuration not stated) |
| 96 to 98 | c1ccc(Cn2c3ccccc3c3ccsc32)cc1 |
| 142 | OC[C@@H]1CN(C(c2ccccc2)(c2ccccc2)c2ccccc2)CCO1 |
| 96.8 to 102 | CCCCc1nc(C)c(CC(=S)N(C)C)c(=O)n1Cc1ccc(-c2ccccc2-c2nnn[nH]2)cc1 |
| 93 to 105 | CCCNC(=O)C(CC)Cc1ccc2c(c1)c(Cc1ccc(C(=O)NS(=O)(=O)c3ccccc3C)cc1OC)cn2CCC (configuration not stated) |
| 96 to 97 | CCCCOc1cccc2oc(-c3ccccc3)cc(=O)c12 |
| 66 | Cc1ccc(S(=O)(=O)N2CCCC2c2ccc(N(C)C)c(F)c2)cc1 (racemic) |

| melting point [°C] | Compound |
| --- | --- |
| 168 to 170 | O=C1CCc2c(-c3ccncc3)sc(-c3ccncc3)c21 |
| 76 to 79 | CCCN(CCC)c1c(CC)nn2c(-c3ccc(OC)cc3C)cccc12 |
| 244 | Cc1ccc(-c2ccc3c(c2)C=C(C(=O)O)CS3)cc1 |
| 183 to 184 | CN(C(=O)C(C#N)C(=O)c1nn(-c2ccccc2)c2c1COc1ccccc1-2)c1ccccc1 (configuration not stated) |
| 130 to 131 | CC(C)Nc1cccnc1N(C)CCOC(=O)c1cc2ccccc2[nH]1 |
| 130 to 135 | COc1ccc(C2c3[nH]c4ccccc4c3CCN2C(=O)C=Cc2ccc(C(F)(F)F)cc2)cc1 (configuration not stated) |
| 207 | Nc1ccc(C(=O)C(=O)c2ccc(N)cc2)cc1 |
| 201 to 203 | CC(=O)Nc1ccc(C2COc3cc(O)c(O)cc3C2)cc1 (configuration not stated) |
| 113 to 114 | Cc1nc(-c2ccc(C(F)(F)F)cc2)sc1CN(C)c1ccc(OCC(=O)O)c(F)c1 |
| 234 | Nc1ccc(-c2noc(-c3cnn4c(C(F)(F)F)cc(-c5ccc(C(F)(F)F)c(Cl)c5)nc34)n2)cn1 |
| > 200 | O=C(Nc1cccc(-c2ccnc3c(C(=O)c4cccs4)cnn23)c1)OCc1cccnc1 |
| 184 to 186 | Cc1ccc(C(=O)NC(N2CCN(c3cccc(F)c3)C2=S)C(Cl)(Cl)Cl)cc1 (configuration not stated) |
| 149 to 153 | CC(=O)Oc1c2cc(C(F)(F)F)c(C(F)(F)F)cc2c(OC(C)=O)c2cc3ccccc3cc12 |
| 253 | Cn1nccc1C(=O)Nc1cc(Oc2ccc3nc(NC(=O)C4CC4)cn3n2)ccc1F |
| 95 | NCC1COc2cc(Cl)cc(-c3ccc(Cl)cc3C(F)(F)F)c2N1 (configuration not stated) |
| 198 | O=S(=O)(Nc1ccc(Oc2cccc3cccnc23)c(Cl)c1)c1ccc(Cl)cc1 |
| 230 to 232 | CC(C)(C)c1ccc(-c2cc(N3CCOCC3)cc(=O)o2)cc1 |
| 135 to 137 | COc1ccc(CN(OC)C(=O)C2=C(O)C(=O)N(C)C2)cc1 |
| 229 to 232 | CS(=O)(=O)c1ccc(-n2cnc3ccc(-c4nnc(CC(F)(F)F)o4)cc32)cc1 |
| 243 to 245 | CCn1ncc2c3noc(-c4ccc(C(F)(F)F)cc4)c3cnc21 |
| 117 to 118 | O=C1c2cccc(Br)c2C(=O)N1c1ccc(OC(F)(F)F)cc1 |
